From patent US20240122932A1, “Methods of Treating B-Cell Malignancy Using Bcl-2 Inhibitor” (BeiGene Switzerland GmbH, priority 2021, published 2024)

Tests used:
[1] = system: Toledo diffuse large B cell lymphoma (DLBCL) subcutaneous xenograft; assay: Toledo DLBCL subcutaneous xenograft model; format: in vivo, NCG mice
Experimental: Toledo cells are of diffuse large B cell lymphoma (DLBCL) origin and were obtained from American Type Culture Collection (ATCC CRL-2631, Manassas, VA, DC, USA). Cells were grown in RPMI 1640 medium (Corning. Cat #10-040-CVR), supplemented with 10% (v/v) fetal bovine serum (Gibco, Cat #10099-141C), and 100 μg/mL of penicillin and streptomycin (Gibco, Cat #15140-122). Toledo cells were maintained as suspension cell cultures at 37° C. in a 5% CO2 atmosphere. Five to six-week-old female NCG mice were purchased from Gempharmatech of Information Technology Center. All animals were maintained under specific pathogen free (SPF) “full barrier” condition with free access to food and water. Mice were group-housed under a 12 h light:dark cycle (lights on at 08:00 h), at a temperature of 21-26° C. and 35-61% humidity in IVC cages (Lingyunboji (Beijing) Technology Co., Ltd.). Mice were fed with complete granulated feed with Co60 radiosterilization (Beijing Ke Ao Xie Li Feed Co., Ltd.).
(§1) On the day of implantation, Toledo cells were harvested and re-suspended with appropriate volume of ice cold DPBS and same volume of Matrigel (Corning, Cat #356237) to give a final concentration of 1.5×10^7 cells/mL. Re-suspended cells were placed on ice prior to inoculation. The right front flank region of each mouse was cleaned with 75% ethanol prior to cell inoculation. Each animal was injected subcutaneously with 3×10^6 cells in 200 μL of cell suspension in the right front flank via a 26-gauge needle. After implantation, primary tumor volume was measured in two dimensions using a caliper.
Transplanted animals were randomized into 10 groups with 10 mice per group on day 0 according to transplantation sequence and body weight. The groups consisted of vehicle group, 5, 15, 50 mg/kg of venetoclax with QD dosing, 5, 15, 50 mg/kg of Compound 1 with QD dosing, and 2.5, 7.5, 25 mg/kg of Compound 1 with BID dosing. Treatments were administered by oral gavage (p.o.) in a volume of 10 mL/kg body weight. Body weight was assessed immediately before dosing and volume dosed was adjusted accordingly.
(§2) Individual body weight was recorded twice weekly, with mice being monitored daily for clinical signs of toxicity for the duration of the study. Mice were euthanized using carbon dioxide when their tumor volume reached 2,000 mm^3, the tumor was ulcerated, or body weight loss exceeded 20%.
Tumor volume was calculated using the formula: V=0.5×(a×b^2) where a and b are the long and short diameters of the tumor, respectively. Tumor growth inhibition (TGI) was calculated using the following formula: % TGI=100×[1−(treatedt−treatedt0)/(vehiclet−vehiclet0)] (treated t=treated tumor volume at time t, treated t0=treated tumor volume at time 0, vehicle t=vehicle tumor volume at time t and vehicle t0=vehicle tumor volume at time 0)

[2] = system: RS4;11 acute lymphoblastic leukemia (ALL) subcutaneous xenograft; assay: RS4;11 ALL subcutaneous xenograft model; format: in vivo, NCG mice
Experimental: The RS4;11 cells are of acute lymphoblastic leukemia (ALL) origin and were obtained from American Type Culture Collection (ATCC CRL-1873, Manassas, VA, DC, USA). Cells were grown in RPM 1640 medium (Corning, Cat #10-040-CVR), supplemented with 10% (v/v) fetal bovine serum (Gibco, Cat #10099-141C), and 100 μg/mL of penicillin and streptomycin (Gibco, Cat #15140-122). RS4;11 cells were maintained as suspension cell cultures at 37° C. in a 5% CO2 atmosphere. Five to six-week-old female NCG mice were purchased from Gempharmatech of Information Technology Center. All animals were maintained under specific pathogen free (SPF) “full barrier” condition with free access to food and water. Mice were group-housed under a 12 h light:dark cycle (lights on at 08:00 h), at a temperature of 20-26° C. and 37-62% humidity in IVC cages (Lingyunboji (Beijing) Technology Co., Ltd.). Mice were fed with complete granulated feed with Co60 radiosterilization (Beijing Ke Ao Xie Li Feed Co., Ltd.).
as §1, with “RS4;11” for “Toledo”, “5×10^7” for “1.5×10^7”, “1×10^7” for “3×10^6”
Animals were randomly assigned into 10 groups with 10 mice per group according to body weight and tumor volume (100 mm^3-200 mm^3). The groups consisted of vehicle group, 5, 15, 50 mg/kg of venetoclax with QD dosing, 5, 15, 50 mg/kg of Compound 1 with QD dosing, and 2.5, 7.5, 25 mg/kg of Compound 1 with BID dosing. Treatments were administered by oral gavage (p.o.) in a volume of 10 mL/kg body weight. Body weight was assessed immediately before dosing and volume dosed was adjusted accordingly.
as §2
Tumor volume was calculated using the formula: V=0.5×(a×b^2) where a and b are the long and short diameters of the tumor, respectively.

[3] = same total daily doses of 5 and 15 mg/kg

SMILES: CC(C)c1ccccc1[C@@H]1CCCN1C1CC2(CCN(c3ccc(C(=O)NS(=O)(=O)c4ccc(NCC5CCC(C)(O)CC5)c([N+](=O)[O-])c4)c(Oc4cnc5[nH]ccc5c4)c3)CC2)C1 (stereo partly drawn) [Compound 1, 2-((1H-pyrrolo[2,3-b]pyridin-5-yl)oxy)-N-((4-((((1r,4r)-4-hydroxy-4-methylcyclohexyl)methyl)amino)-3-nitrophenyl)sulfonyl)-4-(2-((S)-2-(2-isopropylphenyl)pyrrolidin-1-yl)-7-azaspiro[3.5]nonan-7-yl)benzamide]
- Mean Tumor volume (Day 31) (mm^3 ± SEM) ([1]; 2.5 mg/kg BID × 31 p.o.): 515.7 ± 79.1 mm^3
- TGI (Day 31) ([1]; 2.5 mg/kg BID × 31 p.o.): 70%
- Mean Tumor volume (Day 31) (mm^3 ± SEM) ([1]; 5 mg/kg QD × 31 p.o.): 679.3 ± 63.2 mm^3
- TGI (Day 31) ([1]; 5 mg/kg QD × 31 p.o.): 60%
- Mean Tumor volume (Day 31) (mm^3 ± SEM) ([1]; 7.5 mg/kg BID × 31 p.o.): 230.5 ± 25.9 mm^3
- TGI (Day 31) ([1]; 7.5 mg/kg BID × 31 p.o.): 86%
- Mean Tumor volume (Day 31) (mm^3 ± SEM) ([1]; 15 mg/kg QD × 31 p.o.): 267.4 ± 30.4 mm^3
- TGI (Day 31) ([1]; 15 mg/kg QD × 31 p.o.): 84%
- Mean Tumor volume (Day 31) (mm^3 ± SEM) ([1]; 25 mg/kg BID × 31 p.o.): 182.5 ± 15.9 mm^3
- TGI (Day 31) ([1]; 25 mg/kg BID × 31 p.o.): 89%
- Mean Tumor volume (Day 31) (mm^3 ± SEM) ([1]; 50 mg/kg QD × 31 p.o.): 214.8 ± 19.4 mm^3
- TGI (Day 31) ([1]; 50 mg/kg QD × 31 p.o.): 87%
- anti-tumor effects (in words) ([1]; 2.5, 7.5, 25 mg/kg BID or 5, 15, 50 mg/kg QD, oral): induced dose-dependent anti-tumor effects
- efficacy compared with venetoclax [1, 3]: significantly better efficacy when compared with venetoclax
- Mean Tumor volume (Day 42) (mm^3 ± SEM) ([2]; 2.5 mg/kg BID × 42 p.o.): 512.5 ± 115.9 mm^3
- Mean Tumor volume (Day 42) (mm^3 ± SEM) ([2]; 5 mg/kg QD × 42 p.o.): 820.9 ± 140.2 mm^3
- Mean Tumor volume (Day 42) (mm^3 ± SEM) ([2]; 7.5 mg/kg BID × 42 p.o.): 252.8 ± 48.3 mm^3
- Mean Tumor volume (Day 42) (mm^3 ± SEM) ([2]; 15 mg/kg QD × 42 p.o.): 312.6 ± 57.9 mm^3
- Mean Tumor volume (Day 42) (mm^3 ± SEM) ([2]; 25 mg/kg BID × 42 p.o.): 136.6 ± 2.2 mm^3
- Mean Tumor volume (Day 42) (mm^3 ± SEM) ([2]; 50 mg/kg QD × 42 p.o.): 141.8 ± 5.1 mm^3
- tumor growth inhibition (in words) ([2]; oral administration at well tolerated doses): potently and dose-dependently inhibited tumor growth
- efficacy compared with venetoclax [2, 3]: significantly better efficacy when compared with venetoclax

SMILES: CC1(C)CCC(CN2CCN(c3ccc(C(=O)NS(=O)(=O)c4ccc(NCC5CCOCC5)c([N+](=O)[O-])c4)c(Oc4cnc5[nH]ccc5c4)c3)CC2)=C(c2ccc(Cl)cc2)C1 [Venetoclax, reference compound]
- Mean Tumor volume (Day 31) (mm^3 ± SEM) ([1]; 5 mg/kg QD × 31 p.o.): 1256.5 ± 136.5 mm^3
- TGI (Day 31) ([1]; 5 mg/kg QD × 31 p.o.): 26%
- Mean Tumor volume (Day 31) (mm^3 ± SEM) ([1]; 15 mg/kg QD × 31 p.o.): 847.8 ± 109.4 mm^3
- TGI (Day 31) ([1]; 15 mg/kg QD × 31 p.o.): 50%
- Mean Tumor volume (Day 31) (mm^3 ± SEM) ([1]; 50 mg/kg QD × 31 p.o.): 258.3 ± 22.6 mm^3
- TGI (Day 31) ([1]; 50 mg/kg QD × 31 p.o.): 85%
- Mean Tumor volume (Day 42) (mm^3 ± SEM) ([2]; 5 mg/kg QD × 35 p.o.): >2000 mm^3
- Mean Tumor volume (Day 42) (mm^3 ± SEM) ([2]; 15 mg/kg QD × 42 p.o.): 1070.6 ± 181.1 mm^3
- Mean Tumor volume (Day 42) (mm^3 ± SEM) ([2]; 50 mg/kg QD × 42 p.o.): 288.4 ± 37.8 mm^3
